# Test results: US5945508A, “Substance P treatment for immunostimulation” (priority 1997, dated 1999)
# Read-outs that look alike come from different tables or passages of the source.
# Tests used:
# [1] = test system: murine melanoma B16 cancer cells; details: 1×10^5 B16 cells, mean (SEM)
# Experimental: The mice were infected with 1×10^5 murine melanoma B16 cancer cells by tail vein injection. […] The second group of mice was treated with the same SP dose starting at one week post-injection for seven days. Survival was assessed to determine the effect of SP aerosol therapy in prolonging life when mice are challenged with a massive cancer challenge.
# interleukin-6 = test: Spleen cytokine ELISA, LP-BM5 mouse AIDS model; assay type: in vivo, C57BL6 mice; details: SP aerosol 1 μM
# Experimental: (§1) C57BL6 mice, average weight of 25-30 grams, were infected with the LP-BM5 murine leukemia retrovirus to simulate the human AIDS virus. […] The mice were divided into two groups; LP-BM5 virus only and LP-BM5 virus+substance P aerosol therapy at 1 μM concentration. The mice were killed at 4 and 8 weeks postinoculation.
# (§2) Spleen cytokine assays for interleukin-6 and interferon-gamma were conducted by standard mouse ELISA assays. The antibodies for IL-6 and interferon-gamma were purchased from Genzyme, Inc. and Collaborative Research, respectively. Briefly, flat bottom polyvinylchloride 96-well enzyme immunoassay plates were coated with […] monoclonal antibody in 0.05 ml bicarbonate buffer (pH 9.6) to each cytokine. After washing in phosphate-buffered saline containing 0.05% (v/v) Tween-20, plates were incubated in blocking reagent (1% bovine serum albumin in buffer). For the standard curves for each cytokine assay, serial dilutions of recombinant cytokine were added to a set of wells from anti-cytokine coated plates. After two hours at room temperature and three subsequent washings, biotinylated-anti-cytokine will be added to respective wells diluted 1:500 in blocking reagent. All plates were then incubated for an additional two hours at room temperature, washed three times, then […] of 1:5000 avidin-peroxidase was added. After an additional 3 washes, […] of the substrate mixture was added to each well (ABTS plus hydrogen peroxide solution). After an incubation at room temperature for 10-15 minutes, stopping reagent ([…] of a 12 g NaOH in 50 ml water solution) was added. Readings were taken at 405 nm with 490 nm reference using a microELISA spectrophotometric plate reader. Values of interluekin-6 and interferon-gamma were expressed as nanograms/ml.
# interferon-gamma = test: Spleen cytokine ELISA, LP-BM5 mouse AIDS model; assay type: in vivo, C57BL6 mice; details: SP aerosol 1 μM
# Experimental: as §1, §2
# Spleen T Cell = test: Mitogenesis of spleen T cells, LP-BM5 mouse AIDS model; assay type: in vivo, C57BL6 mice
# Experimental: as §1
# The proliferation of splenic B and T cells induced by mitogens was determined by incorporation of radioactive thymidine. Splenocytes in 0.1 ml of cell culture medium (1×10 ^7 cells/ml) were cultured in 96-well flat-bottom cultured plates with ConA and lipopolysaccharide, 5 micrograms/ml). […] After 4 hours for radioactive thymidine uptake, the cells were harvested by a cell sample harvester. Radioactivity was determined by a liquid scintillation counter (Tri-Carb, 2200CA). The T and B cell mitogenesis values were recorded as counts per min in 1×10^7 cells/ml.
# [2] = test system: spleen, thymus and bone marrow cells; test: JP-8 jet fuel exposed mice, cell numbers (FIGS. 1-3); assay type: in vivo, C57BL6 mice; details: 1 micromolar aerosol 15 minutes after each exposure
# From the text: Since mice are nose-breathers, they were exposed to the aerosol/vapor mixture via nose-only presentation while they were held in individual loading tubes. The tubes were nose-fitted to receiving adaptors that originated from the common anodized aluminum exposure chamber (volume 0.3 m^3, IN-TOX, Albuquerque, N. Mex.). Noses were positioned in the exposure ports to minimize systemic absorption that might occur during total body exposure or through the process of self-grooming after exposure. The mice were rotated on a daily basis through the 24-adaptor positions of the exposure chamber. This was done to minimize proximity to the jet fuel source as a variable in exposure concentration or composition. Passive entrainment of the jet fuel aerosol/vapor mix and room air through the IN-TOX chamber was conducted by vacuum (15 liters/min). The vacuum was applied to the exposure chamber on the side opposite the fuel source. Animal exposure ports not in use were sealed during the exposure period. Longitudinal controls were sham-exposed in a manner identical to those receiving jet fuel, except that only room air was introduced into the exposure chamber. The exposure chamber was thoroughly cleaned prior to the longitudinal control group's exposure.
# The substance P aerosol therapy was performed at the completion of the JP-8 jet fuel exposure. The nebulizer was modified with clean hoses and a new sonication crucible. […] The substance P aerosol therapy was conducted for the same seven day period over a total time period of nine days as the JP-8 jet fuel exposure regimen.
# [3] = test system: murine melanoma B16 cancer cells; test: B16 melanoma lung tumor colonies after tail vein injection; assay type: in vivo, mice; details: for mean number of tumor colonies observed in both lungs: 1×10^4 B16 cells/mouse, 4 weeks post-injection; for reduction in tumors: versus controls
# From the text: The mice were infected with syngeneic murine melanoma B16 cancer cells by tail vein injection. The dose was 1×10^4 B16 tumor cells/mouse. […] The second group of mice was given their substance P aerosol therapy starting one week after the injection of the B16 cells. The aerosol therapy lasted for one week. Both groups of mice and their corresponding controls (injection with B16 cells and no substance P therapy) were killed at 4 weeks post-injection with B16 cells. The data is presented as the mean number of tumor colonies observed in both lungs.
# [4] = 8 weeks post-infection with LP-BM5
substance,measurement,setting,value
Substance P [SP],Days alive after B16 cells,[1]; 1 μM SP aerosol 15 min/day 7 days starting immediately,31.5 (3.8) Days
same,Days alive after B16 cells,[1]; SP aerosol 7 days starting one week after B16 cells,26.0 (2.0) Days
same,Spleen Cytokine Production Interleukin-6,interleukin-6; 4 weeks after LP-BM5 infection,0.1334 (0.02) nanogram/ml
same,Spleen Cytokine Production Interleukin-6,interleukin-6; [4],0.1480 (0.02) nanogram/ml
same,Spleen Cytokine Production Interferon-Gamma,interferon-gamma; 4 weeks after LP-BM5 infection,1.5188 (0.21) nanogram/ml
same,Spleen Cytokine Production Interferon-Gamma,interferon-gamma; [4],1.072 (0.09) nanogram/ml
same,Spleen T Cell Mitogenesis,"Spleen T Cell; 4 weeks after LP-BM5 infection, SP aerosol 1 μM 3 days/week, 25 Hours in Culture",2963 (56) counts per min
same,Spleen T Cell Mitogenesis,"Spleen T Cell; 4 weeks after LP-BM5 infection, SP aerosol 1 μM 3 days/week, 48 Hours in Culture",2769 (23) counts per min
same,Spleen T Cell Mitogenesis,"Spleen T Cell; 4 weeks after LP-BM5 infection, SP aerosol 1 μM 3 days/week, 72 Hours in Culture",4362 (69) counts per min
same,Spleen T Cell Mitogenesis,"Spleen T Cell; 8 weeks post-infection with LP-BM5, SP aerosol 1 μM, 72 hours in culture",3127 (77) counts per min
same,effect on spleen cell number (FIG. 1),[2]; JP-8 500 or 2500 mg/m^3 7 days,totally reverse the effect of the jet fuel on the spleen cell number
same,effect on bone marrow cells (FIG. 3),[2]; JP-8 exposed mice,augments the stimulation substantially
same,effect on thymus cell number (FIG. 2),[2]; JP-8 exposed mice,substantially reverses the effect on cell number
same,mean number of tumor colonies observed in both lungs,[3]; 1 μM SP aerosol 15 min/day 7 days starting immediately (next day),39
same,mean number of tumor colonies observed in both lungs,[3]; SP aerosol for one week starting one week after injection,1
same,reduction in tumors,[3]; therapy starting immediately after B16 cells injection,62.9%
same,reduction in tumors,[3]; therapy starting one week after B16 cells injection,97.0%
